From patent publication US20160296536A1, “Administration of Glucocorticoid Steroids to Livestock” (Animal Biotech, LLC, priority 2015, published 2016)

Columns and labels:
[1] = Example 1: serum cortisol in piglet blood samples (commercial kit); type: in vivo, piglets; conditions: 24 h after weaning; P>0.05
From the text: In a study, a total of 64 piglets (32 gilts [females] and 32 barrows [castrated males]) with initial body weight (BW) of 4.8±0.7 Kg were assigned to four treatments. Treatments were in a 4×2 factorial arrangement with a completely randomized design with two main factors: (I) control (Con), two levels of cortisol agonist (Dexamethasone; DEX; subdivided into 2 dosage levels: DEXA and DEXB), or cortisol antagonist (Metyrapone; MET), and (II) gender (gilt vs. barrow). See Table at FIG. 9, for a summary of the list of the treatments, drug dosage, and number of the animals per treatment. Dexamethasone was injected intramuscular at dosages shown, while Metyrapone was mixed with applesauce and fed to the animals with a syringe. The study lasted for 5 weeks. It began one week before weaning (14-day old piglets), and continued 4 weeks after the weaning. Pigs were weaned at the age of 21-days. Piglets received the treatments either orally via diet or by intra-muscular injection one week before and again 24 hours before weaning. […] Serum cortisol was determined using a commercial kit. Feed intake, average daily gain, feed efficiency, and mortality/morbidity was determined. Body weights (body mass) of the animals were measured on a daily basis for a week after weaning, and then on a weekly basis until the end of the study. […]

[2] = Example 1: body weight and feed efficiency of piglets treated before weaning; type: in vivo; conditions: for higher body weight relative to control animals: MET fed orally one week before and 24 hours before weaning; for higher body weight relative to control animals / improvement of (average) body weight: P<0.01; for improvement of (average) body weight: gilts (female pigs), intramuscular; for higher body weight than the controls at day 35 of the study: P<0.05
From the text: In a study, a total of 64 piglets (32 gilts [females] and 32 barrows [castrated males]) with initial body weight (BW) of 4.8±0.7 Kg were assigned to four treatments. Treatments were in a 4×2 factorial arrangement with a completely randomized design with two main factors: (I) control (Con), two levels of cortisol agonist (Dexamethasone; DEX; subdivided into 2 dosage levels: DEXA and DEXB), or cortisol antagonist (Metyrapone; MET), and (II) gender (gilt vs. barrow). See Table at FIG. 9, for a summary of the list of the treatments, drug dosage, and number of the animals per treatment. Dexamethasone was injected intramuscular at dosages shown, while Metyrapone was mixed with applesauce and fed to the animals with a syringe. The study lasted for 5 weeks. It began one week before weaning (14-day old piglets), and continued 4 weeks after the weaning. Pigs were weaned at the age of 21-days. Piglets received the treatments either orally via diet or by intra-muscular injection one week before and again 24 hours before weaning. Blood samples were collected by venipuncture of the jugular vein on day 14, 20, 21, 22, 23, 24, 26, 28, and 35 of age. Serum cortisol was determined using a commercial kit. Feed intake, average daily gain, feed efficiency, and mortality/morbidity was determined. Body weights (body mass) of the animals were measured on a daily basis for a week after weaning, and then on a weekly basis until the end of the study. See, FIGS. 2 and 3.

[3] = Example 2: body mass, daily gain, feed intake and gain-to-feed of weaned gilts; type: in vivo, piglets; conditions: weaned pigs; 0.2 mg/kg intramuscular
Description: In this test, eighteen gilts (of commercially relevant genetics) were weaned at 23±2 days of age. These were housed in floor pens (3 pigs per pen), and assigned to 3 treatments: (1) unweaned suckling that received saline but no cortisol agonist (UWS), (2) weaning that received only saline (WS), and (3) weaning that received the cortisol agonist (WC). The piglets of Group (3) received a cortisol agonist (0.2 mg dexamethasone per kg of body mass) via intramuscular injection on the day before commencing weaning, and day 3 post-weaning. Those of Groups (1) and (2) received instead only a saline solution intra-muscular injection at the same time intervals. Body mass (BW) was monitored daily, and average daily mass gain (ADG) and mass of feed intake (ADFI) were measured and/or estimated for the course of the study. […] Data was analyzed using mixed procedures in SAS (PROC MIXED). Repeated measure analysis of variance was used for the parameters that were measured over time.

Structure (SMILES) | effect on serum cortisol levels [1] | increase of average body weight of the piglets ([2]; all piglets, average over the course of the study) | higher body weight relative to control animals ([2]; barrows) | effect on body weight of piglets at day 35 of the study ([2]; day 35) | higher body weight relative to control animals ([2]; gilts) | effect on body weight ([2]; barrows, anti-inflammatory dose, P>0.05) | improvement of (average) body weight ([2]; DEXA dose (anti-inflammatory)) | improvement of (average) body weight ([2]; DEXB dose (immunosuppressive)) | improvement of (average) body weight ([2]; DEXB dose (immunosuppressive), listed as dexamethasone) | higher body weight than the controls at day 35 of the study ([2]; gilts, DEXA dose, day 35) | higher body weight than the controls at day 35 of the study ([2]; gilts, DEXB dose, day 35) | effect on ADFI (mass of feed intake) [3] | effect on ADG (average daily mass gain) [3]
CC(C)(C(=O)c1cccnc1)c1cccnc1 [MET, Metyrapone] | Neither MET nor DEX had an effect | 3.4% | 3% | no effect | 4% | – | – | – | – | – | – | – | –
C[C@@H]1C[C@H]2[C@@H]3CCC4=CC(=O)C=C[C@]4(C)[C@@]3(F)[C@@H](O)C[C@]2(C)[C@@]1(O)C(=O)CO [Dexamethasone] | – | – | – | – | – | no effect | 9.3% | 4.1% | 4.4% | 13% | 12% | no effect | no effect
